Biological target: T1, dihydrofolate reductase (DHFR) from chicken liver (Gallus gallus, UniProt P00378)
T1 sequence (P00378 1-189): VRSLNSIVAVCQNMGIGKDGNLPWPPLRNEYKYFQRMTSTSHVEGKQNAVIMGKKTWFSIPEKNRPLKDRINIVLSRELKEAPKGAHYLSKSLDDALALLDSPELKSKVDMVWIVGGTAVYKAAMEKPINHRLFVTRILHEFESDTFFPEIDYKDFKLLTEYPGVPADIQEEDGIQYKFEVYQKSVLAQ
Test: DHF-dependent NADPH oxidation, absorbance at […] nm
Assay type: biochemical
Conditions: 0.187 mM DHF, 0.137 mM NADPH, 0.5 M KCl, 0.05 M Tris-HCl pH 7.5, 25°C, 40 min; partially purified enzyme 35 μg/ml; sample released from PEG40 conjugate at pH 3.0, equipotent to MTX-hexamethylenamine

IC50: 0.19 ± 0.007 µM
SMILES: CN(Cc1cnc2nc(N)nc(N)c2n1)c1ccc(C(=O)N[C@@H](CCC(=O)NCCCCCCN)C(=O)O)cc1 [MTX-hexamethylenamine]
